EC50 data for 74 compounds are collected here from ChEMBL document CHEMBL5725801, “Fused heterocyclic compounds as CaM kinase inhibitors” (2018).

Broadly, the EC50 is the concentration giving half of the maximal effect.

The assay in a line: CaMKII Cell-Based Activity: CaMKII activity in neonatal rat ventricular myocytes (NRVM) was measured by monitoring the phosphorylation level of phospholamban using high-content imaging. NRVMs were plated in a clear bottom 384-well plate in medium supplemented with 10% fetal bovine serum (FBS) and incubated at 37° C., 5% CO2 overnight. The medium was changed to a serum-free medium and compounds were dosed to the cells. The cells were incubated at 37° C., 5% CO2 for 4 hours and were then treated with 100 nM ATX-II (Alomone Labs) to activate CaMKII. 10 minutes after the addition of ATX-II, the cells were fixed with 4% formaldehyde followed by permeabilization with 0.1% triton X100. The fixed cells were stained with an anti-phospho-phospholamban primary antibody (Santa Cruz Biotechnology) and an Alexa488-labeled anti-rabbit IgG secondary antibody (Life Technologies Corporation) as well as Hoechst 33342 (Life Technologies Corporation). The cells were imaged using an ArrayScan VTI (Cellomics) and analyzed for cells containing a positive fluorescent signal at 485 nm, reported as % responder. The % responders were plotted against the compound concentration to determine the compounds EC50.

In turn, `CCc1cc(C(=O)NC[C@H](C)N(CC)CC)cc(-c2cnn3ccc(-c4cccs4)nc23)n1` showed an EC50 of 59.7 nM. This counts as double-digit nanomolar.
In the case of `CCN(CC)[C@@H](C)CNC(=O)c1cc(-c2cnn3ccc(-c4cccs4)nc23)nc(N2CCC(O)CC2)c1`, the EC50 came to 46.6 nM.
For `CCN(CC)[C@@H](C)CNC(=O)c1cc(-c2cnn3ccc(-c4cccs4)nc23)nc(N2CC(O)C2)c1` the value was 17.7 nM.
In turn, `CCN(CC)[C@@H](C)CNC(=O)c1cc(-c2cnn3ccc(-c4cccs4)nc23)nc(N(C)C)c1` registered an EC50 of 40.8 nM.
Regarding `CCN(CC)[C@@H](C)CNC(=O)c1cc(-c2cnn3ccc(-c4cccs4)nc23)nc(N2CC(OC)C2)c1`, the EC50 was found to be 13.7 nM.
For the compound `CCN[C@@H](C)CNC(=O)c1cc(Cl)nc(-c2cnn3ccc(-c4ccccc4)nc23)c1`, the EC50 was 13.8 nM.
The compound `COc1cc(C(=O)N2CCCC[C@H]2CN)cc(-c2cnn3ccc(-c4ccccc4)nc23)n1` had an EC50 of 288 nM.
As to `CCN[C@@H](C)CNC(=O)c1cc(-c2cnn3ccc(-c4cccs4)nc23)nc(N2CC(O)C2)c1`, it took 604 nM to reach a half-maximal effect (EC50).
For `CCN(CC)[C@@H](C)CNC(=O)c1cc(NCCN(C)C)nc(-c2cnn3ccc(-c4ccccc4)nc23)c1` the value was 31.9 nM; for `O=C(c1ccnc(-c2cnn3ccc(-c4ccccc4)nc23)c1)N1CCC2CCNCC21` (centres undefined), 65.6 nM.
Compound `COc1cc(C(=O)N2CCCC[C@@H]2CN)cc(-c2cnn3ccc(-c4ccccc4)nc23)n1` gave an EC50 of 316 nM.
For `CCN(CC)[C@@H](C)CNC(=O)c1cc(NCC2(N3CCCC3)COC2)nc(-c2cnn3ccc(-c4cccs4)nc23)c1` the value was 232 nM.
`CCN(CC)[C@@H](C)CNC(=O)c1cc(-c2cnn3ccc(-c4cccs4)nc23)nc(N2CC(S(=O)(=O)NC)C2)c1` registered a concentration giving a half-maximal response (EC50) of 50.5 nM.
Turning to `CCN[C@@H](C)CNC(=O)c1cc(-c2cnn3ccc(-c4cccs4)nc23)nc(N2CC(OC)C2)c1`, the EC50 turned out to be 90.5 nM.
Consider `Cc1cc(C(=O)N2CCC[C@@H]2CN)cc(-c2cnn3ccc(-c4ccccc4)nc23)n1`, for which the EC50 was found to be 211 nM.
For `CCN(CC)[C@@H](C)CNC(=O)c1cc(-c2cnn3ccc(-c4cccs4)nc23)nc(N2CCC(O)C(F)(F)C2)c1` (some centres undefined) the value was 65.5 nM; for `CCN(CC)[C@@H](C)CNC(=O)c1cc(Cl)nc(-c2cnn3ccc(-c4cccs4)nc23)c1`, 69.3 nM; for `CCN(CC)[C@@H](C)CNC(=O)c1cc(-c2cnn3ccc(-c4cccs4)nc23)nc(N2CCC(C)(O)CC2)c1`, 46 nM.
For `CN(C)c1cc(C(=O)N2CCCC[C@H]2CN)cc(-c2cnn3ccc(-c4ccccc4)nc23)n1` the value was 418 nM; for `CCN(CC)[C@@H](C)CNC(=O)c1cc(-c2cnn3ccc(-c4cccs4)nc23)nc(N2CC(S(=O)(=O)NC3CC3)C2)c1`, 51 nM; for `CCN(CC)[C@@H](C)CNC(=O)c1cc(N)nc(-c2cnn3ccc(-c4ccccc4)nc23)c1`, 25 nM.
In the case of `CCN(CC)[C@@H](C)CNC(=O)c1cc(-c2cnn3ccc(-c4ccsc4)nc23)nc(N2CC(OC)C2)c1`, the midpoint of the response, the EC50, lay at 14.9 nM. This EC50 is about 1.7-fold lower than that of the compound before.
For `Cc1cnc(-c2cnn3ccc(-c4ccccc4)nc23)cc1C(=O)N1CCCC[C@@H]1[C@@H](C)N` the value was 66.4 nM; for `CN(C)c1cc(C(=O)N2CCCC[C@@H]2CN)cc(-c2cnn3ccc(-c4ccccc4)nc23)n1`, 53.2 nM.
Compound `NC[C@H]1CCCCN1C(=O)c1cc(-c2cnn3ccc(-c4ccccc4)nc23)nc(C2CC2)c1` came in with an EC50 of 29.2 nM.
As for `CCN[C@@H](C)CNC(=O)c1cc(-c2cnn3ccc(-c4ccccc4)nc23)nc(C2CC2)c1`, the EC50 stood at 15.3 nM.
In the case of `Cc1cnc(-c2cnn3ccc(-c4ccccc4)nc23)cc1C(=O)N1CCCC[C@@H]1CN` it was 33.3 nM; in that of `CCN(CC)[C@@H](C)CNC(=O)c1cc(-c2cnn3ccc(-c4ccccc4)nc23)nc(N2CC(OC)C2)c1`, 16.9 nM; in that of `O=C(c1ccnc(-c2cnn3ccc(-c4cccs4)nc23)c1)N1CCC[C@@H]2CCNC[C@@H]21`, 80.8 nM.
For `CCN[C@@H](C)CNC(=O)c1cc(CC)nc(-c2cnn3ccc(-c4ccccc4)nc23)c1`, a half-maximal effect (EC50) was put at 170 nM. Compared with the last compound, the EC50 is about 2.1-fold higher.
For `NC[C@@H]1CCCCN1C(=O)c1cc(Cl)nc(-c2cnn3ccc(-c4ccccc4)nc23)c1` the value was 213 nM.
In the case of `NC[C@@H]1CCCCN1C(=O)c1cc(Cl)nc(-c2cnn3ccc(-c4cccs4)nc23)c1` it was 243 nM; in that of `Nc1cc(C(=O)N2C3CCNCC2CC3)cc(-c2cnn3ccc(-c4ccccc4)nc23)n1` (centres undefined), 606 nM; in that of `CCN(CC)[C@@H](C)CNC(=O)c1cc(-c2cnn3ccc(-c4cccs4)nc23)nc(C(C)C)c1`, 80.4 nM.
In the case of `CCN(CC)[C@@H](C)CNC(=O)c1cc(-c2cnn3ccc(-c4cccs4)nc23)nc(N2CCC2)c1` it was 40.2 nM; in that of `C[C@H](N)CNC(=O)c1cc(-c2cnn3ccc(-c4cccs4)nc23)nc(N2CC(O)C2)c1`, 2480 nM; in that of `NC[C@H]1CCCCN1C(=O)c1cc(Cl)nc(-c2cnn3ccc(-c4cccs4)nc23)c1`, 23.7 nM.
Compound `NC[C@H]1CCCCN1C(=O)c1cc(-c2cnn3ccc(-c4ccccc4)nc23)ncc1N` came in with a concentration giving a half-maximal response (EC50) of 23.3 nM.
In the case of `O=C(c1ccnc(-c2cnn3ccc(-c4ccccc4)nc23)c1)N1CCCC[C@@H]1[C@@H]1CCCN1` it was 6.81 nM.
Regarding `CCN(CC)[C@@H](C)CNC(=O)c1cc(-c2cnn3ccc(-c4cccs4)nc23)nc(N2CC(F)C2)c1`, the EC50 worked out at 20.5 nM.
For `NC[C@H]1CCCCN1C(=O)c1cc(-c2cnn3ccc(-c4ccccc4)nc23)nc(C(F)(F)F)c1`, it took 65.2 nM to reach a half-maximal effect (EC50).
Turning to `CCN(CC)[C@@H](C)CNC(=O)c1cc(-c2cnn3ccc(-c4cccs4)nc23)nc(N2CC(C)(C)C2)c1`, a half-maximal response (EC50) required 93.8 nM.
Compound `Nc1cc(C(=O)N2C3CCNCC2CC3)cc(-c2cnn3ccc(-c4cccs4)nc23)n1` (centres undefined) had an EC50 of 111 nM. This EC50 and that of the compound before are within 1.5-fold of each other.
The compound `CC(C)(C)c1cc(C(=O)N2CCCC[C@@H]2CN)cc(-c2cnn3ccc(-c4ccccc4)nc23)n1` showed an EC50 of 46.6 nM. Against the preceding compound, the EC50 is about 2.4-fold lower.
The compound `O=C(c1ccnc(-c2cnn3ccc(-c4ccccc4)nc23)c1)N1CCCC12CCCNC2` (centres undefined) came in with an EC50 of 8.2 nM. This EC50 is about 5.7-fold lower than that of the compound before.
For `CN(C)c1cc(C(=O)N2CC[C@H](N)C2)cc(-c2cnn3ccc(-c4ccccc4)nc23)n1` the value was 841 nM; for `CCN[C@@H](C)CNC(=O)c1cc(-c2cnn3ccc(-c4ccccc4)nc23)nc(C(C)C)c1`, 19.5 nM; for `N[C@@H]1CCC[C@H]2CCCN(C(=O)c3ccnc(-c4cnn5ccc(-c6ccccc6)nc45)c3)[C@H]21`, 71.7 nM.
In the case of `COc1cc(C(=O)N2CC[C@H](N)C2)cc(-c2cnn3ccc(-c4cccs4)nc23)n1` it was 145 nM; in that of `CCN[C@@H](C)CNC(=O)c1cc(N)nc(-c2cnn3ccc(-c4ccccc4)nc23)c1`, 113 nM; in that of `CCN(CC)[C@@H](C)CNC(=O)c1cc(-c2cnn3ccc(-c4cccs4)nc23)nc(N2CC(S(C)(=O)=O)C2)c1`, 31.3 nM.
For `COC1CN(c2cc(C(=O)NCC34CCCN3CCC4)cc(-c3cnn4ccc(-c5ccccc5)nc34)n2)C1` the value was 69.6 nM; for `Cc1cc(C(=O)N2CCCC[C@@H]2CN)cc(-c2cnn3ccc(-c4ccccc4)nc23)n1`, 52.8 nM.
On to `CCN(CC)[C@@H](C)CNC(=O)c1cc(-c2cnn3ccc(-c4cccs4)nc23)nc(N2CC(C#N)C2)c1`, for which it took 9.07 nM to reach a half-maximal effect (EC50).
The compound `NC[C@H]1CCCCN1C(=O)c1cc(-c2cnn3ccc(-c4ccccc4)nc23)ncc1Cl` registered an EC50 of 35.2 nM.
For `CCN(CC)[C@@H](C)CNC(=O)c1cc(N)nc(-c2cnn3ccc(-c4cccs4)nc23)c1` the value was 10.5 nM.
In turn, `COC1CN(c2cc(C(=O)NC[C@H](C)N)cc(-c3cnn4ccc(-c5cccs5)nc34)n2)C1` displayed an EC50 of 139 nM.
On to `CCN(CC)[C@@H](C)CNC(=O)c1cc(NCCN(C)C)nc(-c2cnn3ccc(-c4cccs4)nc23)c1`, for which a half-maximal effect (EC50) was put at 59 nM.
`CCN[C@@H](C)CNC(=O)c1cc(C)nc(-c2cnn3ccc(-c4ccccc4)nc23)c1`: the response was half-maximal at 284 nM (EC50).
`CN(C)c1cc(C(=O)N2CCCC[C@@H]2CN)cc(-c2cnn3ccc(-c4cccs4)nc23)n1` displayed an EC50 of 49 nM. Compared with the last compound, the EC50 is about 5.8-fold lower.
The compound `CCN(CC)[C@@H](C)CNC(=O)c1cc(-c2cnn3ccc(-c4cccs4)nc23)nc(C(F)(F)F)c1` yielded an EC50 of 102 nM.
For `CCN(CC)[C@@H](C)CNC(=O)c1cc(-c2cnn3ccc(-c4cccs4)nc23)nc(N2CC(NS(=O)(=O)C3CC3)C2)c1` the value was 28.1 nM.
With `CCN(CC)[C@@H](C)CNC(=O)c1cc(-c2cnn3ccc(-c4cccs4)nc23)nc(N2CC(C(F)(F)F)C2)c1`, the EC50 is 54.4 nM.
For `CNc1cnc(-c2cnn3ccc(-c4ccccc4)nc23)cc1C(=O)N1CCCC[C@@H]1CN` the value was 21.8 nM.
In the case of `CCN(CC)[C@@H](C)CNC(=O)c1cc(-c2cnn3ccc(-c4cccs4)nc23)nc(N2CC(F)(F)C2)c1` it was 17.3 nM; in that of `COc1cc(C(=O)N2CC[C@H](N)C2)cc(-c2cnn3ccc(-c4ccccc4)nc23)n1`, 471 nM.
`NC[C@H]1CCCCN1C(=O)c1cc(Cl)nc(-c2cnn3ccc(-c4ccccc4)nc23)c1` came in with an EC50 of 33.7 nM.
For `CN(C)c1cc(C(=O)N2CC[C@H](N)C2)cc(-c2cnn3ccc(-c4cccs4)nc23)n1` the value was 212 nM.
As to `CCN(CC)[C@@H](C)CNC(=O)c1cc(-c2cnn3ccc(-c4cccs4)nc23)nc(N2CC(OC(F)F)C2)c1`, a half-maximal response (EC50) required 19.9 nM.
`CCN(CC)[C@@H](C)CNC(=O)c1cc(-c2cnn3ccc(-c4cccs4)nc23)nc(N2CCn3ccnc3C2)c1` yielded an EC50 of 121 nM. This EC50 lies about 6.1-fold higher than the previous one.
In turn, `CCN(CC)[C@@H](C)CNC(=O)c1cc(-c2cnn3ccc(-c4cccs4)nc23)nc(N2CCCS2(=O)=O)c1` yielded an EC50 of 11.2 nM.
With `CCN(CC)[C@@H](C)CNC(=O)c1cc(-c2cnn3ccc(-c4cncnc4)nc23)nc(N2CC(OC)C2)c1`, a half-maximal response (EC50) required 519 nM.
`COC1CN(c2cc(C(=O)NC[C@H](C)N)cc(-c3cnn4ccc(-c5ccccc5)nc34)n2)C1` showed an EC50 of 122 nM.
For `CCOC1CN(c2cc(C(=O)NC[C@H](C)N(CC)CC)cc(-c3cnn4ccc(-c5cccs5)nc34)n2)C1`, the EC50 was 9.45 nM.
